According to PubChem BioAssay AID330 (DTP/NCI, 2004):
Several values for one entry are separate records, joined by “and”; a condition that tells them apart may be missing. Equal values may be shown once. Toxic doses and inconclusive results are not listed. How the source made its calls: active means survival T/C of 150% or more; inactive means T/C below 125% in these data. Peptide text beside a SMILES is read from it.

Test system: P388 leukemia ip, CD2F1 mice, survival T/C
Experiment: NCI In Vivo Anticancer Drug Screen. Data for tumor model P388 Leukemia (intraperitoneal) in CD2F1 (CDF1) mice
Conditions: endpoint: median survival time, higher = longer survival
Summary of the method: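 Mice carrying the transplanted tumor received test compound or vehicle. Survival was recorded in each group, and the value is the treated-group measurement divided by that of the vehicle-treated control group.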

[1] = dose: 60.0 mg/kg/injection, schedule: Q01DX005 (ip), vehicle: saline with Tween-80
[2] = dose: 120.0 mg/kg/injection, schedule: Q01DX005 (ip), vehicle: saline with Tween-80
[3] = dose: 50.0 mg/kg/injection, schedule: Q01DX005 (ip), vehicle: saline
[4] = dose: 50.0 mg/kg/injection, schedule: Q01DX009 (ip), vehicle: saline with Tween-80
[5] = dose: 100.0 mg/kg/injection, schedule: Q01DX005 (ip), vehicle: saline
[6] = dose: 100.0 mg/kg/injection, schedule: Q01DX009 (ip), vehicle: saline with Tween-80
[7] = dose: 200.0 mg/kg/injection, schedule: Q01DX005 (ip), vehicle: saline
[8] = dose: 200.0 mg/kg/injection, schedule: Q01DX009 (ip), vehicle: saline with Tween-80
[9] = dose: 100.0 mg/kg/injection, schedule: Q01DX009 (ip), vehicle: saline
[10] = dose: 60.0 mg/kg/injection, schedule: Q01DX005 (ip), vehicle: Klucel (hydroxypropylcellulose) (HPC)
[11] = dose: 120.0 mg/kg/injection, schedule: Q01DX005 (ip), vehicle: Klucel (hydroxypropylcellulose) (HPC)
[12] = dose: 240.0 mg/kg/injection, schedule: Q01DX005 (ip), vehicle: Klucel (hydroxypropylcellulose) (HPC)

Measured: T/C

Cc1cccc(=O)[n-]1.Cc1cccc(=O)[n-]1.Cc1cccc(=O)[n-]1.Cc1cccc(=O)[n-]1.[Mo+2].[Mo+2]
inactive: dose: 100.0 mg/kg/injection, schedule: Q04DX002 (ip), vehicle: Klucel (hydroxypropylcellulose) (HPC) 102 % of control | dose: 200.0 mg/kg/injection, schedule: Q04DX002 (ip), vehicle: Klucel (hydroxypropylcellulose) (HPC) 98 % of control | dose: 400.0 mg/kg/injection, schedule: Q04DX002 (ip), vehicle: Klucel (hydroxypropylcellulose) (HPC) 100 % of control

O=C1C=C[C@]2(C(=O)O)[C@@H]3C=C[C@@H](CC3)[C@H]12
inactive: dose: 100.0 mg/kg/injection, schedule: Q04DX003 (ip), vehicle: Klucel (hydroxypropylcellulose) (HPC) 96 % of control | dose: 200.0 mg/kg/injection, schedule: Q04DX003 (ip), vehicle: Klucel (hydroxypropylcellulose) (HPC) 100 % of control | dose: 400.0 mg/kg/injection, schedule: Q04DX003 (ip), vehicle: Klucel (hydroxypropylcellulose) (HPC) 90 % of control

CC(C)(C)c1cc(C(c2ccc3c(c2)OCO3)N2CCOCC2)c(O)c(C(C)(C)C)c1 (centres undefined)
inactive: [1] 100 % of control | [2] 100 % of control | dose: 240.0 mg/kg/injection, schedule: Q01DX005 (ip), vehicle: saline with Tween-80 100 % of control

CC(C)CC(NC(=O)CN)C(=O)O (centres undefined)
inactive: dose: 25.0 mg/kg/injection, schedule: Q01DX005 (ip), vehicle: saline 103 % of control | dose: 25.0 mg/kg/injection, schedule: Q01DX009 (ip), vehicle: saline with Tween-80 95 % of control | [3] 101 % of control | [4] 89 % of control | [5] 103 % of control | [6] 88 % of control | [7] 99 % of control | [8] 91 % of control

Cc1nc(N)[nH]c(=O)c1CCc1ccccc1
inactive: dose: 60.0 mg/kg/injection, schedule: Q01DX005 (ip), vehicle: saline 97 % of control | dose: 120.0 mg/kg/injection, schedule: Q01DX005 (ip), vehicle: saline 99 % of control | dose: 240.0 mg/kg/injection, schedule: Q01DX005 (ip), vehicle: saline 98 % of control

Cn1c2nc(=O)n(-c3ccccc3)c(=O)c-2nc2c1CCCC2
inactive: dose: 3.13 mg/kg/injection, schedule: Q01DX009 (ip), vehicle: saline with Tween-80 100 % of control | dose: 6.25 mg/kg/injection, schedule: Q01DX009 (ip), vehicle: saline with Tween-80 106 % of control and 109 % of control | dose: 12.5 mg/kg/injection, schedule: Q01DX009 (ip), vehicle: saline with Tween-80 106 % of control and 116 % of control | [4] 110 % of control | [6] 115 % of control | [8] 116 % of control

CN=C(C)NC1CCCCC1
inactive: dose: 50.0 mg/kg/injection, schedule: Q01DX009 (ip), vehicle: saline 96 % of control | [9] 96 % of control

Cc1ccc(NC(=S)SCc2ccco2)cc1Cl
inactive: dose: 50.0 mg/kg/injection, schedule: Q01DX009 (ip), vehicle: suspension in saline 100 % of control | dose: 100.0 mg/kg/injection, schedule: Q01DX009 (ip), vehicle: suspension in saline 103 % of control | dose: 200.0 mg/kg/injection, schedule: Q01DX009 (ip), vehicle: suspension in saline 109 % of control

CSc1ccc(SC)c2c1C(=O)c1c(SC)ccc(SC)c1C2=O
inactive: [4] 93 % of control | [6] 96 % of control

OC(Cc1cnc2ccccc2c1)(c1ccccc1)c1ccccc1
inactive: dose: 50.0 mg/kg/injection, schedule: Q04DX002 (ip), vehicle: saline with Tween-80 111 % of control | dose: 100.0 mg/kg/injection, schedule: Q04DX002 (ip), vehicle: saline with Tween-80 96 % of control | dose: 200.0 mg/kg/injection, schedule: Q04DX002 (ip), vehicle: saline with Tween-80 88 % of control

Cc1ccnc(NC(N)=O)n1
inactive: [4] 103 % of control | [6] 103 % of control | [8] 101 % of control

COc1cccc(OCC(=O)O)c1OC
inactive: dose: 100.0 mg/kg/injection, schedule: Q01DX001 (ip), vehicle: Klucel (hydroxypropylcellulose) (HPC) 98 % of control | dose: 200.0 mg/kg/injection, schedule: Q01DX001 (ip), vehicle: Klucel (hydroxypropylcellulose) (HPC) 97 % of control

Cc1ccc(-n2cnc3sc4c(c3c2=O)CCCC4)cc1
inactive: [10] 100 % of control | [11] 89 % of control | [12] 90 % of control

O=C(O)c1ccc(=O)[nH]c1
inactive: [9] 101 % of control and 107 % of control | dose: 200.0 mg/kg/injection, schedule: Q01DX009 (ip), vehicle: saline 110 % of control and 118 % of control | dose: 400.0 mg/kg/injection, schedule: Q01DX009 (ip), vehicle: saline 100 % of control and 109 % of control | dose: 600.0 mg/kg/injection, schedule: Q01DX009 (ip), vehicle: saline 104 % of control and 106 % of control

CCOC(=O)C(C)(C)Oc1cccc2c1S(=O)(=O)c1ccccc1-2
inactive: [4] 95 % of control | [6] 93 % of control | [8] 100 % of control

Cc1ccc2c(c1)Nc1c(ccc3ccccc13)S2
inactive: dose: 50.0 mg/kg/injection, schedule: Q01DX005 (ip), vehicle: saline with Tween-80 105 % of control | dose: 100.0 mg/kg/injection, schedule: Q01DX005 (ip), vehicle: saline with Tween-80 105 % of control | dose: 200.0 mg/kg/injection, schedule: Q01DX005 (ip), vehicle: saline with Tween-80 103 % of control

CCCCN=C(N=C(NC(=O)c1ccccc1)c1ccccc1)c1ccccc1
inactive: [4] 90 % of control | [6] 89 % of control | [8] 93 % of control

CC1=C2C3OC(=O)C(C)C3CCC2(C)C=C(Cl)C1=O (centres undefined)
inactive: [10] 111 % of control | [11] 98 % of control | [12] 101 % of control

COC(=O)Nc1cn2c(n1)sc1ccccc12
inactive: dose: 100.0 mg/kg/injection, schedule: Q01DX001 (ip), vehicle: saline with Tween-80 100 % of control | dose: 200.0 mg/kg/injection, schedule: Q01DX001 (ip), vehicle: saline with Tween-80 96 % of control | dose: 400.0 mg/kg/injection, schedule: Q01DX001 (ip), vehicle: saline with Tween-80 91 % of control

NCCCCC(NC(=O)C(N)Cc1cnc[nH]1)C(=O)O (stereo not drawn) (H-His-Lys-OH; configuration not given here)
inactive: [3] 99 % of control | [5] 108 % of control | [7] 100 % of control

NC(=S)N/N=C/c1ccc(C(F)(F)F)cn1
inactive: dose: 3.8 mg/kg/injection, schedule: Q01DX009 (ip), vehicle: Klucel (hydroxypropylcellulose) (HPC) 96 % of control | dose: 5.8 mg/kg/injection, schedule: Q01DX009 (ip), vehicle: Klucel (hydroxypropylcellulose) (HPC) 93 % of control | dose: 6.0 mg/kg/injection, schedule: Q01DX009 (ip), vehicle: Klucel (hydroxypropylcellulose) (HPC) 107 % of control | dose: 8.8 mg/kg/injection, schedule: Q01DX009 (ip), vehicle: Klucel (hydroxypropylcellulose) (HPC) 93 % of control | dose: 8.9 mg/kg/injection, schedule: Q01DX009 (ip), vehicle: Klucel (hydroxypropylcellulose) (HPC) 114 % of control | dose: 13.3 mg/kg/injection, schedule: Q01DX009 (ip), vehicle: Klucel (hydroxypropylcellulose) (HPC) 114 % of control and 93 % of control | dose: 20.0 mg/kg/injection, schedule: Q01DX009 (ip), vehicle: Klucel (hydroxypropylcellulose) (HPC) 101 % of control and 121 % of control | dose: 30.0 mg/kg/injection, schedule: Q01DX009 (ip), vehicle: Klucel (hydroxypropylcellulose) (HPC) 114 % of control

CCCCCCC(/C=C/c1ccccc1)=N\O
inactive: dose: 6.25 mg/kg/injection, schedule: Q01DX009 (ip), vehicle: Klucel (hydroxypropylcellulose) (HPC) 107 % of control | dose: 12.5 mg/kg/injection, schedule: Q01DX009 (ip), vehicle: Klucel (hydroxypropylcellulose) (HPC) 102 % of control | dose: 25.0 mg/kg/injection, schedule: Q01DX009 (ip), vehicle: Klucel (hydroxypropylcellulose) (HPC) 103 % of control and 104 % of control | dose: 50.0 mg/kg/injection, schedule: Q01DX009 (ip), vehicle: Klucel (hydroxypropylcellulose) (HPC) 108 % of control and 112 % of control | dose: 100.0 mg/kg/injection, schedule: Q01DX009 (ip), vehicle: Klucel (hydroxypropylcellulose) (HPC) 103 % of control | dose: 200.0 mg/kg/injection, schedule: Q01DX009 (ip), vehicle: Klucel (hydroxypropylcellulose) (HPC) 104 % of control and 110 % of control | dose: 400.0 mg/kg/injection, schedule: Q01DX009 (ip), vehicle: Klucel (hydroxypropylcellulose) (HPC) 109 % of control and 98 % of control

CCN(CC)C(=S)C(C)(C)C
inactive: [1] 106 % of control | [2] 106 % of control

CC(C)=CC(=O)C1=C(O)C(=O)OC1
inactive: [4] 109 % of control | [6] 108 % of control | [8] 107 % of control

CC1(C)COC(=O)C1=C(C#N)C#N
inactive: dose: 25.0 mg/kg/injection, schedule: Q04DX003 (ip), vehicle: saline 100 % of control | dose: 50.0 mg/kg/injection, schedule: Q04DX003 (ip), vehicle: saline 98 % of control | dose: 100.0 mg/kg/injection, schedule: Q04DX003 (ip), vehicle: saline 102 % of control
